Where two headings read alike, the source gives them in different places.
Test system: L. donovani IRFP axenic amastigotes
Assay: Primary single-concentration screening on axenic amastigotes, growth inhibition at 72 h
Assay type: cell-based, Leishmania donovani
Details: for inhibition at 1 µM / inhibition at 10 µM: Leishmania donovani
[1] = 1 µM, experiment 1, 72 h, axenic amastigotes, read-out: Growth Inhibition (%) at 72h, 1 µM_Exp1
[2] = 1 µM, experiment 2, 72 h, axenic amastigotes, read-out: Growth Inhibition (%) at 72h, 1 µM_Exp2
[3] = 10 µM, experiment 1, 72 h, axenic amastigotes, read-out: Growth Inhibition (%) at 72h, 10 µM_Exp1
[4] = 10 µM, experiment 2, 72 h, axenic amastigotes, read-out: Growth Inhibition (%) at 72h, 10 µM_Exp2
[5] = 1 µM, experiment 1, 72 h, axenic amastigotes
[6] = 1 µM, experiment 2, 72 h, axenic amastigotes
[7] = 10 µM, experiment 1, 72 h, axenic amastigotes
[8] = 10 µM, experiment 2, 72 h, axenic amastigotes

CC[C@@]1(O)C(=O)OCc2c1cc1n(c2=O)Cc2cc3c([N+](=O)[O-])cccc3nc2-1 [Rubitecan]
inhibition at 1 µM [1]: 69.8%
inhibition at 1 µM [2]: 36.9%
inhibition at 10 µM [3]: 94.4%
inhibition at 10 µM [4]: 89.4%

CC(C)(O)[C@H]1O[C@H]2CC[C@@]3(C)[C@@](O)(CC[C@H]4Cc5c([nH]c6ccccc56)[C@@]43C)C2=CC1=O [Paxilline]
inhibition at 1 µM [1]: 6.12%
inhibition at 1 µM [2]: 19.6%
inhibition at 10 µM [3]: 98.6%
inhibition at 10 µM [4]: 99.1%

COc1cc(/C=C/C(=O)N2CCC=CC2=O)cc(OC)c1OC [Piperlongumine]
Growth Inhibition (%) at 72h, 1 µM_Exp1 [5]: 99.95%
Growth Inhibition (%) at 72h, 1 µM_Exp2 [6]: 98.63%
Growth Inhibition (%) at 72h, 10 µM_Exp1 [7]: 100.21%
Growth Inhibition (%) at 72h, 10 µM_Exp2 [8]: 100.05%

c1ccc2c(Cc3[nH]c4ccccc4c3Cc3c[nH]c4ccccc34)c[nH]c2c1 [2,3-Bis(3-indolylmethyl) indole]
inhibition at 1 µM [1]: -5.15%
inhibition at 1 µM [2]: 13.6%
inhibition at 10 µM [3]: 101%
inhibition at 10 µM [4]: 100%

O=C(O)CCCc1c[nH]c2ccccc12 [Indole-3-butyric acid]
inhibition at 1 µM [1]: -6.27%
inhibition at 1 µM [2]: 14.8%
inhibition at 10 µM [3]: 70.2%
inhibition at 10 µM [4]: 84%

O=C(C[C@H]1NCCC[C@@H]1O)Cn1cnc2ccccc2c1=O [Febrifugine]
inhibition at 1 µM [1]: 15.4%
inhibition at 1 µM [2]: -25.3%
inhibition at 10 µM [3]: 99.8%
inhibition at 10 µM [4]: 98.2%

O=C(O)c1cccc2nc3ccccc3nc12 [Phenazine-1-carboxylic acid]
inhibition at 1 µM [1]: -12.2%
inhibition at 1 µM [2]: -87%
inhibition at 10 µM [3]: 90.8%
inhibition at 10 µM [4]: 87.8%

COc1cc2c(cc1OC)[C@H]1[C@@H](C)c3ccc(OC)c(OC)c3CN1CC2 [Corydaline]
Growth Inhibition (%) at 72h, 1 µM_Exp1 [5]: -15.75%
Growth Inhibition (%) at 72h, 1 µM_Exp2 [6]: 2.30%
Growth Inhibition (%) at 72h, 10 µM_Exp1 [7]: 79.13%
Growth Inhibition (%) at 72h, 10 µM_Exp2 [8]: 87.39%

CCCCCCCCC(=O)NCc1ccc(O)c(OC)c1 [Nonivamide]
inhibition at 1 µM [1]: 10.9%
inhibition at 1 µM [2]: -30.7%
inhibition at 10 µM [3]: 101%
inhibition at 10 µM [4]: 93.3%

Br.CN1[C@H]2C[C@H](OC(=O)[C@H](CO)c3ccccc3)C[C@@H]1[C@@H](O)C2 [Anisodamine (hydrobromide)]
Growth Inhibition (%) at 72h, 1 µM_Exp1 [5]: -15.73%
Growth Inhibition (%) at 72h, 1 µM_Exp2 [6]: 4.55%
Growth Inhibition (%) at 72h, 10 µM_Exp1 [7]: 80.63%
Growth Inhibition (%) at 72h, 10 µM_Exp2 [8]: 11.58%

CC(=O)C1=C(O)[C@@H]2[C@H]3c4c[nH]c5cccc(c45)C[C@H]3C(C)(C)N2C1=O [Cyclopiazonic acid]
inhibition at 1 µM [1]: 20.8%
inhibition at 1 µM [2]: 19.9%
inhibition at 10 µM [3]: 100%
inhibition at 10 µM [4]: 100%

CC[C@@]1(O)C(=O)OCc2c1cc1n(c2=O)Cc2cc3c(N)cccc3nc2-1 [9-Aminocamptothecin]
inhibition at 1 µM [1]: -3.99%
inhibition at 1 µM [2]: 62%
inhibition at 10 µM [3]: 74.7%
inhibition at 10 µM [4]: 89.1%

COc1cc2c(cc1OC)-c1c(C)c3ccc(OC)c(OC)c3c[n+]1CC2.[OH-] [Dehydrocorydaline (hydroxyl)]
Growth Inhibition (%) at 72h, 1 µM_Exp1 [5]: 10.19%
Growth Inhibition (%) at 72h, 1 µM_Exp2 [6]: -0.13%
Growth Inhibition (%) at 72h, 10 µM_Exp1 [7]: 92.43%
Growth Inhibition (%) at 72h, 10 µM_Exp2 [8]: 77.86%

COC(=O)C[C@](O)(CCC(C)(C)O)C(=O)O[C@@H]1C(OC)=C[C@]23CCCN2CCc2cc4c(cc2[C@H]13)OCO4 [Harringtonine]
inhibition at 1 µM [1]: -25.3%
inhibition at 1 µM [2]: 3.29%
inhibition at 10 µM [3]: 92.5%
inhibition at 10 µM [4]: 92.2%

COc1cc2c(cc1OC)-c1c(C)c3ccc(OC)c(OC)c3c[n+]1CC2.[Cl-] [Dehydrocorydaline (chloride)]
Growth Inhibition (%) at 72h, 1 µM_Exp1 [5]: 13.00%
Growth Inhibition (%) at 72h, 1 µM_Exp2 [6]: 31.86%
Growth Inhibition (%) at 72h, 10 µM_Exp1 [7]: 95.47%
Growth Inhibition (%) at 72h, 10 µM_Exp2 [8]: 88.17%

O=C1C=CC(=O)N1 [Maleimide]
inhibition at 1 µM [1]: 101%
inhibition at 1 µM [2]: 101%
inhibition at 10 µM [3]: 101%
inhibition at 10 µM [4]: 101%

CC[C@]12C=CCN3CC[C@]4(C(=C(C(=O)OC)C1)Nc1ccccc14)[C@@H]32 [Tabersonine]
inhibition at 1 µM [1]: -26.2%
inhibition at 1 µM [2]: -7.79%
inhibition at 10 µM [3]: 98%
inhibition at 10 µM [4]: 61.5%

Cc1c2ccncc2c(C)c2c1[nH]c1ccccc12.Cl [Ellipticine (hydrochloride)]
Growth Inhibition (%) at 72h, 1 µM_Exp1 [5]: 36.30%
Growth Inhibition (%) at 72h, 1 µM_Exp2 [6]: -10.32%
Growth Inhibition (%) at 72h, 10 µM_Exp1 [7]: 98.68%
Growth Inhibition (%) at 72h, 10 µM_Exp2 [8]: 97.67%

Cl.Cl.O=C(C[C@H]1NCCC[C@@H]1O)Cn1cnc2ccccc2c1=O [Febrifugine (dihydrochloride)]
Growth Inhibition (%) at 72h, 1 µM_Exp1 [5]: 74.39%
Growth Inhibition (%) at 72h, 1 µM_Exp2 [6]: 25.76%
Growth Inhibition (%) at 72h, 10 µM_Exp1 [7]: 97.63%
Growth Inhibition (%) at 72h, 10 µM_Exp2 [8]: 97.12%

CCCCC/C=C\C/C=C\CCCCCCCC(=O)NCc1ccccc1 [N-Benzyllinoleamide]
Growth Inhibition (%) at 72h, 1 µM_Exp1 [5]: 23.06%
Growth Inhibition (%) at 72h, 1 µM_Exp2 [6]: -24.6%
Growth Inhibition (%) at 72h, 10 µM_Exp1 [7]: 99.77%
Growth Inhibition (%) at 72h, 10 µM_Exp2 [8]: 99.86%

COC(=O)C[C@](O)(CCCC(C)(C)O)C(=O)O[C@@H]1C(OC)=C[C@]23CCCN2CCc2cc4c(cc2[C@H]13)OCO4 [Homoharringtonine]
inhibition at 1 µM [1]: 4.68%
inhibition at 1 µM [2]: -119%
inhibition at 10 µM [3]: 89.9%
inhibition at 10 µM [4]: 91.5%

COc1cc(CNC(=O)CCCCCC(C)C)ccc1O [Nordihydrocapsaicin]
Growth Inhibition (%) at 72h, 1 µM_Exp1: 1.91%
Growth Inhibition (%) at 72h, 1 µM_Exp2: -21.65%
Growth Inhibition (%) at 72h, 10 µM_Exp1: 90.15%
Growth Inhibition (%) at 72h, 10 µM_Exp2: 70.24%

O=S(=O)([O-])O.c1c2c(cc3c1OCO3)-c1cc3ccc4c(c3c[n+]1CC2)OCO4 [Coptisine (Sulfate)]
Growth Inhibition (%) at 72h, 1 µM_Exp1 [5]: -9.12%
Growth Inhibition (%) at 72h, 1 µM_Exp2 [6]: -56.10%
Growth Inhibition (%) at 72h, 10 µM_Exp1 [7]: 71.50%
Growth Inhibition (%) at 72h, 10 µM_Exp2 [8]: 83.90%

O=C1c2ccccc2-n2c1nc1ccccc1c2=O [Tryptanthrin]
inhibition at 1 µM [1]: 13.1%
inhibition at 1 µM [2]: 23.4%
inhibition at 10 µM [3]: 84.1%
inhibition at 10 µM [4]: 75%

CCCCCCCCCCCCCc1cc(=O)c2ccccc2n1C [Dihydroevocarpine]
Growth Inhibition (%) at 72h, 1 µM_Exp1 [5]: -21.58%
Growth Inhibition (%) at 72h, 1 µM_Exp2 [6]: 19.18%
Growth Inhibition (%) at 72h, 10 µM_Exp1 [7]: 97.61%
Growth Inhibition (%) at 72h, 10 µM_Exp2 [8]: 83.00%

O=C1N[C@@H]2C(=C[C@H](O)[C@@H](O)[C@H]2O)c2cc3c(c(O)c21)OCO3 [Narciclasine]
Growth Inhibition (%) at 72h, 1 µM_Exp1 [5]: -12.26%
Growth Inhibition (%) at 72h, 1 µM_Exp2 [6]: -86.55%
Growth Inhibition (%) at 72h, 10 µM_Exp1 [7]: 84.56%
Growth Inhibition (%) at 72h, 10 µM_Exp2 [8]: 93.45%

CC[C@@]1(O)C(=O)OCc2c1cc1n(c2=O)Cc2cc3cc(OC)ccc3nc2-1 [10-Methoxycamptothecin]
Growth Inhibition (%) at 72h, 1 µM_Exp1 [5]: 73.40%
Growth Inhibition (%) at 72h, 1 µM_Exp2 [6]: 85.61%
Growth Inhibition (%) at 72h, 10 µM_Exp1 [7]: 97.42%
Growth Inhibition (%) at 72h, 10 µM_Exp2 [8]: 93.76%

O=C(O)CNCC(=O)O [Iminodiacetic acid]
inhibition at 1 µM [1]: -16.6%
inhibition at 1 µM [2]: -73%
inhibition at 10 µM [3]: -16.9%
inhibition at 10 µM [4]: 79.9%

Cc1ncc(CO)c(CO)c1O.Cl [Pyridoxine (hydrochloride)]
Growth Inhibition (%) at 72h, 1 µM_Exp1 [5]: 6.77%
Growth Inhibition (%) at 72h, 1 µM_Exp2 [6]: -86.02%
Growth Inhibition (%) at 72h, 10 µM_Exp1 [7]: 79.17%
Growth Inhibition (%) at 72h, 10 µM_Exp2 [8]: 65.78%

CC(C)=CC[C@H](O)C1=CC(=O)c2c(O)ccc(O)c2C1=O [(-)-Alkannin]
Growth Inhibition (%) at 72h, 1 µM_Exp1 [5]: 100.44%
Growth Inhibition (%) at 72h, 1 µM_Exp2 [6]: 100.08%
Growth Inhibition (%) at 72h, 10 µM_Exp1 [7]: 99.90%
Growth Inhibition (%) at 72h, 10 µM_Exp2 [8]: 99.93%

COc1cc2c(cc1OC)-c1c(C)c3ccc(OC)c(OC)c3c[n+]1CC2.O=[N+]([O-])[O-] [Dehydrocorydaline (nitrate)]
Growth Inhibition (%) at 72h, 1 µM_Exp1 [5]: 27.42%
Growth Inhibition (%) at 72h, 1 µM_Exp2 [6]: -14.19%
Growth Inhibition (%) at 72h, 10 µM_Exp1 [7]: 82.98%
Growth Inhibition (%) at 72h, 10 µM_Exp2 [8]: 66.56%

COc1c2ccoc2nc2c(O)cccc12 [Robustine]
inhibition at 1 µM [1]: 48.3%
inhibition at 1 µM [2]: 1.86%
inhibition at 10 µM [3]: 90.6%
inhibition at 10 µM [4]: 33.3%
